Measurements as given in patent US8722849B2, “Polypeptides” (Novo Nordisk A/S, priority 2011, dated 2014).
Starred links: 1 amine or outer side, 2 acyl side, 3 side chain; linkers in the order of their positions; H or OH if unused. Positions of bridges follow the written chain, without caps; N, C: chain ends. Residues, ends and D or L forms follow the SMILES beside them. Groups on a side chain read outwards from the residue. *: point of attachment. C20 diacid = O=C(O)CCCCCCCCCCCCCCCCCCC(=O)*; C18 diacid = O=C(O)CCCCCCCCCCCCCCCCC(=O)*; γGlu = O=C(O)[C@H](CCC(=O)[*:2])N[*:1]; AEEA = NCCOCCOCC(=O)O

Key:
[1] = Assay (IX) pK, determination of T½ in mini-pig; type: in vivo, Göttingen mini-pigs; conditions: male, Göttingen, iv, 2 nmol/kg; minipig; plasma terminal half-life
food intake = test: Assay (I) efficacy testing on appetite (food intake), ad libitum fed rat model; type: in vivo, Sprague Dawley (SD) rats; conditions: 3 nmol/kg
How it was run: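 Food consumption was logged per animal every hour up to 7 h and again at 24 h (occasionally 48 h) after a single 0.01–3 mg/kg dose, given sc, po or ip at dark-phase onset. Ad libitum fed SD rats, 200–250 g, kept on inverted light/dark cycle; vehicle group included, outliers removed by Grubbs test.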

## CC[C@H](C)[C@H](NC(=O)[C@@H]1CCCN1C(=O)CNC(=O)[C@H](Cc1ccccc1)NC(=O)[C@H](CC(N)=O)NC(=O)[C@H](CC(N)=O)NC(=O)[C@H](CO)NC(=O)[C@H](CO)NC(=O)[C@H](Cc1c[nH]cn1)NC(=O)[C@H](CCCNC(=N)N)NC(=O)[C@H](CC(C)C)NC(=O)[C@H](Cc1ccccc1)NC(=O)[C@H](CCC(=O)O)NC(=O)[C@H](C)NC(=O)[C@H](CC(C)C)NC(=O)[C@H](CCCNC(=N)N)NC(=O)[C@H](CCC(N)=O)NC(=O)[C@@H](NC(=O)[C@H](C)NC(=O)[C@@H]1CSSC[C@H](NC(=O)[C@H](CCCCN)NC(=O)CC[C@H](NC(=O)CCCCCCCCCCCCCCCCCCC(=O)O)C(=O)O)C(=O)N[C@@H](CC(N)=O)C(=O)N[C@@H]([C@@H](C)O)C(=O)N[C@@H](C)C(=O)N[C@@H]([C@@H](C)O)C(=O)N1)[C@@H](C)O)C(=O)N[C@@H](CC(C)C)C(=O)N1CCC[C@H]1C(=O)N1CCC[C@H]1C(=O)N[C@H](C(=O)N[C@@H](CC(N)=O)C(=O)N[C@H](C(=O)NCC(=O)N[C@@H](CO)C(=O)N[C@@H](CC(N)=O)C(=O)N[C@H](C(=O)N1CCC[C@H]1C(N)=O)[C@@H](C)O)C(C)C)[C@@H](C)O [Example 53, N-alpha-[(S)-4-Carboxy-4-(19-carboxynonadecanoylamino)butyryl]-[Glu14,Arg17,Pro37]-pramlintide]
[1]
  half-life: 98 h
Food intake
  Food intake reduction 0-24 h 3 nmol/kg (%): 40%
  Food intake reduction 24-48 h 3 nmol/kg (%): 28%

## CC[C@H](C)[C@H](NC(=O)[C@@H]1CCCN1C(=O)CNC(=O)[C@H](Cc1ccccc1)NC(=O)[C@H](CC(N)=O)NC(=O)[C@H](CC(N)=O)NC(=O)[C@H](CO)NC(=O)[C@H](CO)NC(=O)[C@H](Cc1c[nH]cn1)NC(=O)[C@H](Cc1c[nH]cn1)NC(=O)[C@H](CC(C)C)NC(=O)[C@H](Cc1ccccc1)NC(=O)[C@H](CCC(=O)O)NC(=O)[C@H](C)NC(=O)[C@H](CC(C)C)NC(=O)[C@H](CCCNC(=N)N)NC(=O)[C@H](CCC(N)=O)NC(=O)[C@@H](NC(=O)[C@H](C)NC(=O)[C@@H]1CSSC[C@H](NC(=O)[C@H](CCCCN)NC(=O)CC[C@H](NC(=O)CCCCCCCCCCCCCCCCCCC(=O)O)C(=O)O)C(=O)N[C@@H](CC(N)=O)C(=O)N[C@@H]([C@@H](C)O)C(=O)N[C@@H](C)C(=O)N[C@@H]([C@@H](C)O)C(=O)N1)[C@@H](C)O)C(=O)N[C@@H](CC(C)C)C(=O)N1CCC[C@H]1C(=O)N1CCC[C@H]1C(=O)N[C@H](C(=O)N[C@@H](CC(N)=O)C(=O)N[C@H](C(=O)NCC(=O)N[C@@H](CO)C(=O)N[C@@H](CC(N)=O)C(=O)N[C@H](C(=O)N[C@@H](Cc1ccc(O)cc1)C(N)=O)[C@@H](C)O)C(C)C)[C@@H](C)O [Example 27, N-alpha-[(S)-4-Carboxy-4-(19-carboxynonadecanoylamino)butyryl]-[Glu14,His17]-pramlintide] ({C20 diacid-γGlu}-KCNTATCATQRLAEFLHHSSNNFGPILPPTNVGSNTY-NH2; disulfide 2-7 (inferred))
[1]
  half-life: 90 h
Food intake
  Food intake reduction 0-24 h 3 nmol/kg (%): 56%
  Food intake reduction 24-48 h 3 nmol/kg (%): 53%

## CC[C@H](C)[C@H](NC(=O)[C@@H]1CCCN1C(=O)CNC(=O)[C@H](Cc1ccccc1)NC(=O)[C@H](CC(N)=O)NC(=O)[C@H](CC(N)=O)NC(=O)[C@H](CO)NC(=O)[C@H](CO)NC(=O)[C@H](Cc1c[nH]cn1)NC(=O)[C@H](Cc1c[nH]cn1)NC(=O)[C@H](CC(C)C)NC(=O)[C@H](Cc1ccccc1)NC(=O)[C@H](CCC(=O)O)NC(=O)[C@H](C)NC(=O)[C@H](CC(C)C)NC(=O)[C@H](CCCNC(=N)N)NC(=O)[C@H](CCC(N)=O)NC(=O)[C@@H](NC(=O)[C@H](C)NC(=O)[C@@H]1CSSC[C@H](NC(=O)[C@H](CCCCN)NC(=O)[C@H](CCC(=O)O)NC(=O)CC[C@H](NC(=O)CCCCCCCCCCCCCCCCCCC(=O)O)C(=O)O)C(=O)N[C@@H](CC(N)=O)C(=O)N[C@@H]([C@@H](C)O)C(=O)N[C@@H](C)C(=O)N[C@@H]([C@@H](C)O)C(=O)N1)[C@@H](C)O)C(=O)N[C@@H](CC(C)C)C(=O)N1CCC[C@H]1C(=O)N1CCC[C@H]1C(=O)N[C@H](C(=O)N[C@@H](CC(N)=O)C(=O)N[C@H](C(=O)NCC(=O)N[C@@H](CO)C(=O)N[C@@H](Cc1c[nH]cn1)C(=O)N[C@H](C(=O)N[C@@H](Cc1ccc(O)cc1)C(N)=O)[C@@H](C)O)C(C)C)[C@@H](C)O [Example 56, N-alpha-[(S)-4-Carboxy-4-(19-carboxynonadecanoylamino)butyryl]-Glu-[Glu14,His17,His35]-pramlintide] ({C20 diacid-γGlu}-EKCNTATCATQRLAEFLHHSSNNFGPILPPTNVGSHTY-NH2; disulfide 3-8 (inferred))
Food intake
  Food intake reduction 0-24 h 3 nmol/kg (%): 46%
  Food intake reduction 24-48 h 3 nmol/kg (%): 21%

## CC[C@H](C)[C@H](NC(=O)[C@H](CCCCNC(=O)COCCOCCNC(=O)COCCOCCNC(=O)CC[C@H](NC(=O)CCCCCCCCCCCCCCCCC(=O)O)C(=O)O)NC(=O)CNC(=O)[C@H](Cc1ccccc1)NC(=O)[C@H](CC(N)=O)NC(=O)[C@H](CC(N)=O)NC(=O)[C@H](CO)NC(=O)[C@H](CO)NC(=O)[C@H](Cc1c[nH]cn1)NC(=O)[C@H](Cc1c[nH]cn1)NC(=O)[C@H](CC(C)C)NC(=O)[C@H](Cc1ccccc1)NC(=O)[C@H](CCC(=O)O)NC(=O)[C@H](C)NC(=O)[C@H](CC(C)C)NC(=O)[C@H](CCCNC(=N)N)NC(=O)[C@H](CCC(N)=O)NC(=O)[C@@H](NC(=O)[C@H](C)NC(=O)[C@@H]1CSSC[C@H](NC(=O)[C@@H](N)CCCCN)C(=O)N[C@@H](CC(N)=O)C(=O)N[C@@H]([C@@H](C)O)C(=O)N[C@@H](C)C(=O)N[C@@H]([C@@H](C)O)C(=O)N1)[C@@H](C)O)C(=O)N[C@@H](CC(C)C)C(=O)N1CCC[C@H]1C(=O)N1CCC[C@H]1C(=O)N[C@H](C(=O)N[C@@H](CC(N)=O)C(=O)N[C@H](C(=O)NCC(=O)N[C@@H](CO)C(=O)N[C@@H](CC(N)=O)C(=O)N[C@H](C(=O)N[C@@H](Cc1ccc(O)cc1)C(N)=O)[C@@H](C)O)C(C)C)[C@@H](C)O [Example 73, N-epsilon25-[2-(2-{2-[2-(2-{2-[(S)-4-Carboxy-4-(17-carboxyheptadecanoylamino)butyrylamino]ethoxy}ethoxy)acetylamino]ethoxy}ethoxy)acetyl]-[Glu14,His17,Lys25]-pramlintide] (H-KCNTATCATQRLAEFLHHSSNNFGK([AEEA-AEEA-γGlu-C18 diacid])ILPPTNVGSNTY-NH2; disulfide 2-7 (inferred); N-terminus and C-terminus assumed)
Food intake
  Food intake reduction 0-24 h 3 nmol/kg (%): 29%
  Food intake reduction 24-48 h 3 nmol/kg (%): 2%

## CC[C@H](C)[C@H](NC(=O)[C@@H]1CCCN1C(=O)CNC(=O)[C@H](Cc1ccccc1)NC(=O)[C@H](CC(N)=O)NC(=O)[C@H](CC(N)=O)NC(=O)[C@H](CO)NC(=O)[C@H](CO)NC(=O)[C@H](Cc1c[nH]cn1)NC(=O)[C@H](Cc1c[nH]cn1)NC(=O)[C@H](CC(C)C)NC(=O)[C@H](Cc1ccccc1)NC(=O)[C@H](CCC(=O)O)NC(=O)[C@H](C)NC(=O)[C@H](CC(C)C)NC(=O)[C@H](CCCNC(=N)N)NC(=O)[C@H](CCC(N)=O)NC(=O)[C@@H](NC(=O)[C@H](C)NC(=O)[C@@H]1CSSC[C@H](NC(=O)[C@H](CCCNC(=N)N)NC(=O)CNC(=O)CC[C@H](NC(=O)CCCCCCCCCCCCCCCCCCC(=O)O)C(=O)O)C(=O)N[C@@H](CC(N)=O)C(=O)N[C@@H]([C@@H](C)O)C(=O)N[C@@H](C)C(=O)N[C@@H]([C@@H](C)O)C(=O)N1)[C@@H](C)O)C(=O)N[C@@H](CC(C)C)C(=O)N1CCC[C@H]1C(=O)N1CCC[C@H]1C(=O)N[C@H](C(=O)N[C@@H](CC(N)=O)C(=O)N[C@H](C(=O)NCC(=O)N[C@@H](CO)C(=O)N[C@@H](CC(N)=O)C(=O)N[C@H](C(=O)N1CCC[C@H]1C(N)=O)[C@@H](C)O)C(C)C)[C@@H](C)O [Example 101, N-alpha-[(S)-4-Carboxy-4-(19-carboxynonadecanoylamino)butyryl]-Gly-[Arg1,Glu14,His17,Pro37]-pramlintide] ({C20 diacid-γGlu}-GRCNTATCATQRLAEFLHHSSNNFGPILPPTNVGSNTP-NH2; disulfide 3-8 (inferred))
Food intake
  Food intake reduction 0-24 h 3 nmol/kg (%): 70%
  Food intake reduction 24-48 h 3 nmol/kg (%): 90%

## CC[C@H](C)[C@H](NC(=O)[C@@H]1CCCN1C(=O)CNC(=O)[C@H](Cc1ccccc1)NC(=O)[C@H](CC(N)=O)NC(=O)[C@H](CC(N)=O)NC(=O)[C@H](CO)NC(=O)[C@H](CO)NC(=O)[C@H](Cc1c[nH]cn1)NC(=O)[C@H](CCCNC(=N)N)NC(=O)[C@H](CC(C)C)NC(=O)[C@H](Cc1ccccc1)NC(=O)[C@H](CCC(=O)O)NC(=O)[C@H](C)NC(=O)[C@H](CC(C)C)NC(=O)[C@H](CCCNC(=N)N)NC(=O)[C@H](CCC(N)=O)NC(=O)[C@@H](NC(=O)[C@H](C)NC(=O)[C@@H]1CSSC[C@H](NC(=O)[C@H](Cc2c[nH]cn2)NC(=O)CNC(=O)CC[C@H](NC(=O)CCCCCCCCCCCCCCCCCCC(=O)O)C(=O)O)C(=O)N[C@@H](CC(N)=O)C(=O)N[C@@H]([C@@H](C)O)C(=O)N[C@@H](C)C(=O)N[C@@H]([C@@H](C)O)C(=O)N1)[C@@H](C)O)C(=O)N[C@@H](CC(C)C)C(=O)N1CCC[C@H]1C(=O)N1CCC[C@H]1C(=O)N[C@H](C(=O)N[C@@H](CC(N)=O)C(=O)N[C@H](C(=O)NCC(=O)N[C@@H](CO)C(=O)N[C@@H](CC(N)=O)C(=O)N[C@H](C(=O)N1CCC[C@H]1C(N)=O)[C@@H](C)O)C(C)C)[C@@H](C)O [Example 89, N-alpha-[(S)-4-Carboxy-4-(19-carboxynonadecanoylamino)butyryl]-Gly-[His1,Glu14,Arg17,Pro37]-pramlintide] ({C20 diacid-γGlu}-GHCNTATCATQRLAEFLRHSSNNFGPILPPTNVGSNTP-NH2; disulfide 3-8 (inferred))
Food intake
  Food intake reduction 0-24 h 3 nmol/kg (%): 42%
  Food intake reduction 24-48 h 3 nmol/kg (%): 23%
